According to publication PMC9105102, “Development and Biochemical Characterization of Self-Immolative Linker Containing GnRH-III-Drug Conjugates” (International Journal of Molecular Sciences, 2022):

What was measured:
[1] = test system: A2780 human ovarian cancer cells; test: cells; assay type: cell-based; conditions: A2780 cells; treatment 24 h (Dau conjugates) or 6 h (PTX compounds), viability at 72 h; mean ± SE of two to three determinations; read-out: A2780 IC50
Procedure: (§1) For cultivation of A2780 human ovarian and Panc-1 human pancreatic cancer cells, RPMI-1640 medium with 10% FBS, L-glutamine and 1% Penicillin-Streptomycin were used. Cells were cultured in appropriate plastic flasks at 37 °C (humidified atmosphere, 5% CO2/95% air).
(§2) A set-up of 96-well plates was used to study the in vitro antiproliferative activity. Therefore, 5 × 10^3 cells in 100 µL complete medium were seeded to each well. After 24 h, complete medium was removed and cells were treated with 200 µL bioconjugate solution in serum-free medium (concentration range 0.0032–50 µM, control wells were treated with serum-free medium). Medium was taken out after 6 h treatment (PTX conjugates) or 24 h (Dau conjugates), replaced by complete medium and incubation was continued. To determine the cell viability, medium was removed after 72 h and 100 µL resazurin solution [45] (10% Tox-8 in FBS-free medium) was added to each well, followed by additional incubation of 2–3 h. A Tecan infinite 200 pro microplate reader (Tecan Group Ltd., Zürich, Switzerland) was used for fluorescence detection (λEx = 560 and λEm = 590 nm). Experiments were performed at least twice, using three parallels per concentration. The cell viability (and IC50 values) was calculated with GraphPad Prism using a nonlinear regression (sigmoidal dose-response).

[2] = test system: Panc-1 human pancreatic cancer cells; test: cells; assay type: cell-based; conditions: Panc-1 cells; treatment 24 h (Dau conjugates) or 6 h (PTX compounds), viability at 72 h; mean ± SE of two to three determinations; read-out: Panc-1 IC50
Procedure: as §1, §2

[3] = Degradation of drug conjugates in presence of rat liver lysosomal homogenate (LC-MS); assay type: in vitro ADME; conditions: pH 5, 37 °C; for release of free Dau by lysosomal enzymes: up to 24 h; for release of free Dau by lysosomal enzymes / release of the smallest Dau-containing metabolite H-Lys(Dau-glutaryl)-OH: LC-MS
Procedure: The preparation of the rat liver lysosomal homogenate was carried out as recently reported. A Qubit Protein Assay Kit (Thermo Fischer Scientific, Waltham, MA, USA) was used to examine the concentration of the lysosomal proteins.
Initially, a stock solution of the GnRH-III-Dau conjugates in water (5 µg/µL) was prepared. For the degradation reaction, the conjugates and the lysosomal homogenate were diluted together in 0.2 M NaOAc buffer (pH 5) to a concentration of 0.25 µg/µL each. These mixtures were kept at 37 °C and at distinct time points (5 min, 1 h, 2 h, 4 h, 8 h and 24 h), 15 µL of each sample were quenched with 2 µL acetic acid and analyzed by LC-MS (System I).
The GnRH-III-PTX conjugates were dissolved in DMSO to a concentration of 10 mM. The reaction was carried out in 0.2 M NaOAc buffer (pH 5) with 10 µM conjugate and 0.025 µg/mL lysosomal homogenate. The reaction mixtures were incubated at 37 °C and aliquots of 60 μL were taken at 5 min, 1 h, 2 h, 4 h, 8 h and 24 h and quenched with 5 μL of acetic acid. The analysis of the samples was performed by LC–MS (System-II).

[4] = biological target: T1, GnRH-R (membranes of human pituitary) (Homo sapiens, UniProt P30968); test: Radioligand competition assay, displacement of [125I]-GnRH-I-[6D-Trp] (triptorelin), human pituitary membranes; assay type: binding
T1 construct: GnRH-Rs expressed on human pituitary and human prostate cancer cells; from tissue; host or cells: normal human pituitary (anterior lobe), autopsy; membrane homogenate
T1 sequence (P30968 1-328): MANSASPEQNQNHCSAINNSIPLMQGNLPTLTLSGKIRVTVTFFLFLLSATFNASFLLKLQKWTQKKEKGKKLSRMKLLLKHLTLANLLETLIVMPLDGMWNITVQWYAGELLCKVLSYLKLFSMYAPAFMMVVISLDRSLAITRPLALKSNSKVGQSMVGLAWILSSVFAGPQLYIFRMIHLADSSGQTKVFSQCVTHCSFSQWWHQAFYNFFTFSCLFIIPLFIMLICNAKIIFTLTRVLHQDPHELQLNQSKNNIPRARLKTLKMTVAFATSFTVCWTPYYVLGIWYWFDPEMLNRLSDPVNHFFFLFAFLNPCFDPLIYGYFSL
Procedure: (§3) A ligand competition assay with [^125I]-GnRH-I-[^6D-Trp] as radioligand was performed to examine the binding affinity of the GnRH-III-drug conjugates to GnRH-Rs expressed on human pituitary and human prostate cancer cells. Human prostate cancer cells were derived from patients at the time of initial surgical treatment, while tissue samples from normal human pituitary (anterior lobe) were obtained by autopsy. All subjects were informed and gave their consent for inclusion before they participated in the study. The preparation of the cell membranes was carried out according to the literature. The chloramines-T method was used to prepare radioiodinated GnRH-I agonist triptorelin which was purified by RP-HPLC [10, 38, 39, 47]. The displacement of [^125I]-GnRH-I-[^6D-Trp] was studied in an in vitro ligand competition assay to determine the binding affinities of the non-radio-labeled GnRH-III bioconjugates to GnRH-RI [10, 11, 38, 39]. Membrane homogenates containing […] protein were incubated in duplicate or triplicate with 60–80,000 cpm [^125I]-GnRH-I-[^6D-Trp] and rising concentration (1 pM—1 µM) of nonradioactive bioconjugates as competitors in a total volume of […] binding buffer. Protein concentration was determined by the method of Bradford using a Bio-Rad protein assay kit (Bio-Rad Laboratories, Hercules, CA, USA). The LIGAND-PC computerized curve-fitting program of Munson and Rodbard was used to determine the receptor binding characteristics and IC50 values.

[5] = biological target: T2, GnRH-R (membranes of human prostate cancer specimens) (Homo sapiens, UniProt P30968); test: Radioligand competition assay, displacement of [125I]-GnRH-I-[6D-Trp] (triptorelin), human prostate cancer membranes; conditions: mean ± SE of two to three determinations, read-out: IC50 Prostate Cancer, competitive inhibition of [125I][6D-Trp]-GnRH-I binding
T2 construct: GnRH-Rs expressed on human pituitary and human prostate cancer cells; from tissue; host or cells: human prostate cancer specimens from patients (surgery); membrane homogenate
T2 sequence (P30968 1-328): T1 sequence (P30968 1-328)
Procedure: as §3

[6] = Solubility in acidic aqueous buffer (remark); assay type: physicochemical; conditions: compared with the ΔHis-D-Tic compounds

CCCC(=O)NCCCC[C@H](NC(=O)[C@H](Cc1c[nH]c2ccccc12)NC(=O)[C@H](Cc1c[nH]cn1)NC(=O)[C@@H]1CCC(=O)N1)C(=O)N[C@@H](Cc1c[nH]cn1)C(=O)N[C@@H](CC(=O)O)C(=O)N[C@@H](Cc1c[nH]c2ccccc12)C(=O)N[C@@H](CCCCNC(=O)CCCC(=O)N[C@H](C(=O)N[C@@H](CCCNC(N)=O)C(=O)Nc1ccc(COC(=O)N[C@H]2C[C@H](O[C@H]3C[C@](O)(C(C)=O)Cc4c(O)c5c(c(O)c43)C(=O)c3c(OC)cccc3C5=O)O[C@@H](C)[C@H]2O)cc1)C(C)C)C(=O)N1CCC[C@H]1C(=O)NCC(N)=O [compound 10]
IC50 [1]: 11.2 ± 0.38 µM | IC50 [2]: 85.6 ± 24.3 µM | release of free Dau by lysosomal enzymes [3]: release of free Dau and the formation of several peptide fragments could be confirmed | IC50 [4]: 0.0161 ± 0.00203 µM | IC50 [5]: 0.0137 ± 0.00187 µM | solubility in acidic aqueous buffer [6]: better solubility

CCCC(=O)NCCCC[C@H](NC(=O)[C@H](Cc1c[nH]c2ccccc12)NC(=O)[C@H](Cc1c[nH]cn1)NC(=O)[C@@H]1CCC(=O)N1)C(=O)N[C@@H](Cc1c[nH]cn1)C(=O)N[C@@H](CC(=O)O)C(=O)N[C@@H](Cc1c[nH]c2ccccc12)C(=O)N[C@@H](CCCCNC(=O)CCCC(=O)N[C@H](C(=O)N[C@@H](C)C(=O)Nc1ccc(COC(=O)N[C@H]2C[C@H](O[C@H]3C[C@](O)(C(C)=O)Cc4c(O)c5c(c(O)c43)C(=O)c3c(OC)cccc3C5=O)O[C@@H](C)[C@H]2O)cc1)C(C)C)C(=O)N1CCC[C@H]1C(=O)NCC(N)=O [compound 12]
IC50 [1]: 7.48 ± 0.66 µM | IC50 [2]: 56.2 ± 17.3 µM | release of free Dau by lysosomal enzymes [3]: release of free Dau and the formation of several peptide fragments could be confirmed | IC50 [4]: 0.017 ± 0.00104 µM | IC50 [5]: 0.0155 ± 0.00083 µM | solubility in acidic aqueous buffer [6]: better solubility

CCCC(=O)NCCCC[C@H](NC(=O)[C@H](Cc1c[nH]c2ccccc12)NC(=O)[C@H](Cc1c[nH]cn1)NC(=O)[C@@H]1CCC(=O)N1)C(=O)N[C@@H](Cc1c[nH]cn1)C(=O)N[C@@H](CC(=O)O)C(=O)N[C@@H](Cc1c[nH]c2ccccc12)C(=O)N[C@@H](CCCCNC(=O)CCCC(=O)N[C@H]1C[C@H](O[C@H]2C[C@](O)(C(C)=O)Cc3c(O)c4c(c(O)c32)C(=O)c2c(OC)cccc2C4=O)O[C@@H](C)[C@H]1O)C(=O)N1CCC[C@H]1C(=O)NCC(N)=O [compound 23]
IC50 [1]: 67.9 ± 25.4 µM | IC50 [2]: > 100 µM | release of the smallest Dau-containing metabolite H-Lys(Dau-glutaryl)-OH [3]: confirming the release | release of free Dau by lysosomal enzymes [3]: free Dau could not be detected | IC50 [4]: 0.0097 ± 0.00107 µM | IC50 [5]: 0.00861 ± 0.00108 µM

CCCC(=O)NCCCC[C@H](NC(=O)[C@H]1Cc2ccccc2CN1C(=O)[C@@H]1CCC(=O)N1)C(=O)N[C@@H](Cc1c[nH]cn1)C(=O)N[C@@H](CC(=O)O)C(=O)N[C@@H](Cc1c[nH]c2ccccc12)C(=O)N[C@@H](CCCCNC(=O)CCCC(=O)N[C@H]1C[C@H](O[C@H]2C[C@](O)(C(C)=O)Cc3c(O)c4c(c(O)c32)C(=O)c2c(OC)cccc2C4=O)O[C@@H](C)[C@H]1O)C(=O)N1CCC[C@H]1C(=O)NCC(N)=O [compound 24]
IC50 [1]: 48.14 ± 0.47 µM | IC50 [2]: > 100 µM | release of the smallest Dau-containing metabolite H-Lys(Dau-glutaryl)-OH [3]: confirming the release | release of free Dau by lysosomal enzymes [3]: free Dau could not be detected | IC50 [4]: 0.0363 ± 0.00317 µM | IC50 [5]: 0.0427 ± 0.00704 µM

CCCC(=O)NCCCC[C@H](NC(=O)[C@H]1Cc2ccccc2CN1C(=O)[C@@H]1CCC(=O)N1)C(=O)N[C@@H](Cc1c[nH]cn1)C(=O)N[C@@H](CC(=O)O)C(=O)N[C@@H](Cc1c[nH]c2ccccc12)C(=O)N[C@@H](CCCCNC(=O)CCCC(=O)N(C)CCN(C)C(=O)O[C@@H](C(=O)O[C@H]1C[C@@]2(O)[C@@H](OC(=O)c3ccccc3)[C@@H]3[C@]4(OC(C)=O)CO[C@@H]4C[C@H](O)[C@@]3(C)C(=O)[C@H](OC(C)=O)C(=C1C)C2(C)C)[C@@H](NC(=O)c1ccccc1)c1ccccc1)C(=O)N1CCC[C@H]1C(=O)NCC(N)=O [compound 26]
IC50 [1]: > 100 µM | IC50 [2]: > 100 µM | detection of the diamine-PTX fragment ([3]; even after 24 h of incubation): could not be detected | IC50 [4]: 0.0234 ± 0.00167 µM | IC50 [5]: 0.0222 ± 0.00096 µM
